PubChem BioAssay (NCI)
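A five-concentration, 48-hour dose response in 96-well plates underlies each endpoint, interpolated linearly between surrounding concentrations. TGI: concentration producing complete growth inhibition.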

Assays:
Experiment in all cases: NCI anticancer screen, dose series, 48 h
SK-MEL-5 melanoma = tested on: SK-MEL-5 melanoma
HCC-2998 colon = tested on: HCC-2998 colon
SNB-19 CNS = tested on: SNB-19 CNS
UO-31 renal = tested on: UO-31 renal
UACC-62 melanoma = tested on: UACC-62 melanoma
EKVX NSCLC = tested on: EKVX NSCLC
HCT-15 colon = tested on: HCT-15 colon
NCI-H460 lung = tested on: NCI-H460 lung
OVCAR-4 ovarian = tested on: OVCAR-4 ovarian
SNB-75 CNS = tested on: SNB-75 CNS
DU-145 prostate = tested on: DU-145 prostate
IGROV1 ovarian = tested on: IGROV1 ovarian
SR leukemia = tested on: SR leukemia
CAKI-1 renal = tested on: CAKI-1 renal
TK-10 renal = tested on: TK-10 renal

| SMILES | TGI (SK-MEL-5 melanoma) [µM] | TGI (HCC-2998 colon) [µM] | TGI (SNB-19 CNS) [µM] | TGI (UO-31 renal) [µM] | TGI (UACC-62 melanoma) [µM] | TGI (EKVX NSCLC) [µM] | TGI (HCT-15 colon) [µM] | TGI (NCI-H460 lung) [µM] | TGI (OVCAR-4 ovarian) [µM] | TGI (SNB-75 CNS) [µM] | TGI (DU-145 prostate) [µM] | TGI (IGROV1 ovarian) [µM] | TGI (SR leukemia) [µM] | TGI (CAKI-1 renal) [µM] | TGI (TK-10 renal) [µM] |
| --- | --- | --- | --- | --- | --- | --- | --- | --- | --- | --- | --- | --- | --- | --- | --- |
| C=CCn1c(-c2ccc(-c3cs/c(=N\N=O)n3CC=C)cc2)cs/c1=N\N=O | > 100 | > 100 | > 100 | > 100 | > 100 | > 100 | > 100 | > 100 | 57.4 | 88.5 | > 100 | > 100 | > 100 | > 100 | > 100 |
| CC1=C(C(=O)OC(C)C)C(c2ccccc2C(F)(F)F)C(C(=O)OC(CO[N+](=O)[O-])CO[N+](=O)[O-])=C(C)N1 (stereo not given) | 11.4 | > 100 | > 100 | 4.37 | 20.1 | 70.2 | 93.8 | 42.6 | 28.5 | 16.7 | > 100 | 25.9 | > 100 | 38.5 | > 100 |
| CC#CC(O)(C(=O)OC1CC2CCC(C1)N2C)C1CCCC1 (stereo not given) | > 100 | > 100 | > 100 | > 100 | > 100 | > 100 | > 100 | > 100 | > 100 | > 100 | > 100 | > 100 | > 100 | > 100 | > 100 |
| C=CCN1CN(c2ccccc2)C2(CCN(CCCC3(c4ccc(F)cc4)OCCO3)CC2)C1=O | 29.8 | 35.6 | 39.9 | 22.3 | 34.5 | 40.1 | 25.7 | – | – | 32.8 | 61.1 | 39.4 | 48.7 | 75.6 | 33.5 |
| N#CCCN(CCN(CCC#N)C(=O)Nc1ccccc1)C(=O)Nc1ccccc1 | > 100 | > 100 | > 100 | > 100 | > 100 | > 100 | > 100 | > 100 | – | 47.8 | > 100 | > 100 | > 100 | – | > 100 |
| CC1(C)[C@H]2Cc3cc(-c4cc5c(cn4)[C@@H]4C[C@H]([C@@H]5[C@@H]5c6cc(-c7cc8c(cn7)[C@@H]7C[C@H](C8)C7(C)C)ncc6[C@@H]6C[C@H]5C6(C)C)C4(C)C)ncc3[C@@H]1C2 | > 100 | > 100 | > 100 | > 100 | > 100 | > 100 | > 100 | > 100 | – | > 100 | > 100 | > 100 | > 100 | > 100 | – |
| CC(=O)c1cc(C)n2c1CS[C@@H]2c1ccccc1 | > 100 | – | > 100 | > 100 | – | > 100 | > 100 | – | > 100 | > 100 | 93.6 | > 100 | > 100 | > 100 | > 100 |
| CCOC(=O)C(=O)C(CCC(=O)c1ccc2ccccc2c1O)C(=O)OCC (stereo not given) | > 100 | > 100 | > 100 | > 100 | > 100 | > 100 | > 100 | > 100 | > 100 | > 100 | > 100 | > 100 | > 100 | > 100 | – |
